Measured values from PubChem BioAssay AID1259407 (Chemical Carcinogenesis Research Information System (CCRIS), 2018).
Activity calls are given as the source filed them. The rule behind the calls is not given here.

Test system: CCRIS mutagenicity, Ames/micronucleus/aberration tests
Experiment: CCRIS mutagenicity studies
[1] = Test System: AMES SALMONELLA TYPHIMURIUM, Strain/Indicator: TA98, Metabolic Activation: NONE, Method: PREINCUBATION
[2] = Test System: AMES SALMONELLA TYPHIMURIUM, Strain/Indicator: TA98, Metabolic Activation: NONE, Method: STANDARD PLATE
[3] = Test System: AMES SALMONELLA TYPHIMURIUM, Strain/Indicator: TA100, Metabolic Activation: NONE, Method: PREINCUBATION
[4] = Test System: AMES SALMONELLA TYPHIMURIUM, Strain/Indicator: TA100, Metabolic Activation: NONE, Method: STANDARD PLATE

Measured: mutagenic call

Nc1cc2nc3ccccc3nc2cc1N
inactive: Test System: AMES SALMONELLA TYPHIMURIUM, Strain/Indicator: TA98(1,8-DNP6), Metabolic Activation: NONE, Method: PREINCUBATION inactive; negative | [1] inactive; negative | Test System: AMES SALMONELLA TYPHIMURIUM, Strain/Indicator: TA100(OAT-), Metabolic Activation: NONE, Method: PREINCUBATION inactive; negative | Test System: AMES SALMONELLA TYPHIMURIUM, Strain/Indicator: TA100(OAT-), Metabolic Activation: S-9, Method: PREINCUBATION inactive; negative | [3] inactive; negative | [4] inactive; negative
active: Test System: AMES SALMONELLA TYPHIMURIUM, Strain/Indicator: TA98(1,8-DNP6), Metabolic Activation: S-9, Method: PREINCUBATION active; positive | [2] active; positive | Test System: AMES SALMONELLA TYPHIMURIUM, Strain/Indicator: TA98, Metabolic Activation: RAT, LIVER, S-9, AROCLOR 1254, Method: STANDARD PLATE active; positive | Test System: AMES SALMONELLA TYPHIMURIUM, Strain/Indicator: TA98, Metabolic Activation: S-9, Method: PREINCUBATION active; positive | Test System: AMES SALMONELLA TYPHIMURIUM, Strain/Indicator: TA98, Metabolic Activation: S-9, Method: SUSPENSION/PLATE active; positive | Test System: AMES SALMONELLA TYPHIMURIUM, Strain/Indicator: TA100, Metabolic Activation: RAT, LIVER, S-9, AROCLOR 1254, Method: STANDARD PLATE active; positive | Test System: AMES SALMONELLA TYPHIMURIUM, Strain/Indicator: TA100, Metabolic Activation: S-9, Method: PREINCUBATION active; positive | Test System: AMES SALMONELLA TYPHIMURIUM, Strain/Indicator: TA1029, Metabolic Activation: S-9, Method: PREINCUBATION active; positive | Test System: AMES SALMONELLA TYPHIMURIUM, Strain/Indicator: TA1537, Metabolic Activation: NONE, Method: STANDARD PLATE active; positive | Test System: AMES SALMONELLA TYPHIMURIUM, Strain/Indicator: TA1537, Metabolic Activation: RAT, LIVER, S-9, AROCLOR 1254, Method: STANDARD PLATE active; positive | Test System: AMES SALMONELLA TYPHIMURIUM, Strain/Indicator: YG1024, Metabolic Activation: PLANT CELL-FREE EXTRACT, Method: PREINCUBATION active; positive | Test System: AMES SALMONELLA TYPHIMURIUM, Strain/Indicator: YG1024, Metabolic Activation: S-9, Method: PREINCUBATION active; positive | Test System: AMES SALMONELLA TYPHIMURIUM, Strain/Indicator: YG1029, Metabolic Activation: PLANT CELL-FREE EXTRACT, Method: PREINCUBATION active; positive | Test System: AMES SALMONELLA TYPHIMURIUM, Strain/Indicator: YG1029, Metabolic Activation: S-9, Method: PREINCUBATION active; positive

CCNC(=O)N(C=O)CCN(C)C
active: Test System: AMES SALMONELLA TYPHIMURIUM, Strain/Indicator: TA1535, Metabolic Activation: NONE, Method: STANDARD PLATE active; positive

C=C(C)CC(C)(C)C
inactive: [1] inactive; negative | Test System: AMES SALMONELLA TYPHIMURIUM, Strain/Indicator: TA98, Metabolic Activation: RAT, LIVER, S-9, PHENOBARBITAL AND BETA-NAPHTHOFLAVONE, Method: PREINCUBATION inactive; negative | [3] inactive; negative | Test System: AMES SALMONELLA TYPHIMURIUM, Strain/Indicator: TA100, Metabolic Activation: RAT, LIVER, S-9, PHENOBARBITAL AND BETA-NAPHTHOFLAVONE, Method: PREINCUBATION inactive; negative | Test System: AMES SALMONELLA TYPHIMURIUM, Strain/Indicator: TA102, Metabolic Activation: NONE, Method: PREINCUBATION inactive; negative | Test System: AMES SALMONELLA TYPHIMURIUM, Strain/Indicator: TA102, Metabolic Activation: RAT, LIVER, S-9, PHENOBARBITAL AND BETA-NAPHTHOFLAVONE, Method: PREINCUBATION inactive; negative | Test System: AMES SALMONELLA TYPHIMURIUM, Strain/Indicator: TA104, Metabolic Activation: NONE, Method: PREINCUBATION inactive; negative | Test System: AMES SALMONELLA TYPHIMURIUM, Strain/Indicator: TA104, Metabolic Activation: RAT, LIVER, S-9, PHENOBARBITAL AND BETA-NAPHTHOFLAVONE, Method: PREINCUBATION inactive; negative | Test System: AMES SALMONELLA TYPHIMURIUM, Strain/Indicator: TA1535, Metabolic Activation: NONE, Method: PREINCUBATION inactive; negative | Test System: AMES SALMONELLA TYPHIMURIUM, Strain/Indicator: TA1535, Metabolic Activation: RAT, LIVER, S-9, PHENOBARBITAL AND BETA-NAPHTHOFLAVONE, Method: PREINCUBATION inactive; negative | Test System: AMES SALMONELLA TYPHIMURIUM, Strain/Indicator: TA1537, Metabolic Activation: NONE, Method: PREINCUBATION inactive; negative | Test System: AMES SALMONELLA TYPHIMURIUM, Strain/Indicator: TA1537, Metabolic Activation: RAT, LIVER, S-9, PHENOBARBITAL AND BETA-NAPHTHOFLAVONE, Method: PREINCUBATION inactive; negative | Test System: E. COLI, Strain/Indicator: WP2UVRA/PKM101, Metabolic Activation: NONE, Method: PREINCUBATION inactive; negative | Test System: E. COLI, Strain/Indicator: WP2UVRA/PKM101, Metabolic Activation: RAT, LIVER, S-9, PHENOBARBITAL AND BETA-NAPHTHOFLAVONE, Method: PREINCUBATION inactive; negative | Test System: E. COLI, Strain/Indicator: WP2UVRA, Metabolic Activation: NONE, Method: PREINCUBATION inactive; negative | Test System: E. COLI, Strain/Indicator: WP2UVRA, Metabolic Activation: RAT, LIVER, S-9, PHENOBARBITAL AND BETA-NAPHTHOFLAVONE, Method: PREINCUBATION inactive; negative

O=[N+]([O-])c1ccc2ccc3c4ccccc4c([N+](=O)[O-])c4ccc1c2c43
active: Test System: AMES SALMONELLA TYPHIMURIUM, Strain/Indicator: TA98(1,8-DNP6), Metabolic Activation: NONE active; positive | Test System: AMES SALMONELLA TYPHIMURIUM, Strain/Indicator: TA98(NR), Metabolic Activation: NONE active; positive | Test System: AMES SALMONELLA TYPHIMURIUM, Strain/Indicator: TA98(NR), Metabolic Activation: NONE, Method: PREINCUBATION active; positive | Test System: AMES SALMONELLA TYPHIMURIUM, Strain/Indicator: TA98, Metabolic Activation: NONE active; positive | [1] active; positive | [2] active; positive | [4] active; positive
